Legend:
[1] = system: OACp4C (Esophageal Adenocarcinoma); experiment: Bliss excess, mean over the matrix (fraction); higher = more synergy
Method in brief: (§1)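 Cell lines in DMEM/F12 or RPMI with 10% FBS were plated in 1536-well plates, held 24 hours at 37°C, 5% CO2, then given two-drug dose matrices for 72 hours (DMSO typically 0.2%). Viability was read by CellTiter-Glo 2.0 luminescence and scaled as inhibition from 0 (vehicle wells) to 1 (blank wells). Combination Emax is the second-highest inhibition in the matrix; Bliss excess is observed combination effect minus expected EA + EB − EA·EB, EA and EB being single-agent effects.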

[2] = system: NCI-H716 (Colorectal Carcinoma); experiment: as above
Method in brief: as §1

[3] = system: TE-10 (Esophageal Squamous Cell Carcinoma); experiment: as above
Method in brief: as §1

[4] = system: A204 (Rhabdomyosarcoma); experiment: as above
Method in brief: as §1

[5] = system: EW-16 (Ewing's Sarcoma); experiment: as above
Method in brief: as §1

[6] = system: CAL-27 (Oral Cavity Carcinoma); experiment: as above
Method in brief: as §1

[7] = system: Jurkat (T-Lymphoblastic Leukemia); experiment: as above
Method in brief: as §1

[8] = system: A253 (Head and Neck Carcinoma); experiment: as above
Method in brief: as §1

[9] = system: CA46 (Burkitt's Lymphoma); experiment: as above
Method in brief: as §1

[10] = system: NCI-H2228 (Lung Adenocarcinoma); experiment: as above
Method in brief: as §1

[11] = system: JIMT-1 (Breast Carcinoma); experiment: as above
Method in brief: as §1

[12] = system: LS-411N (Colorectal Carcinoma); experiment: as above
Method in brief: as §1

[13] = system: AU565 (Breast Carcinoma); experiment: as above
Method in brief: as §1

[14] = system: WM1552C (Melanoma); experiment: combination Emax (second highest fraction inhibited in the dose matrix, 72 h); higher = more inhibition; extreme values may be limits of the assay
Method in brief: as §1

[15] = system: JHH-2 (Hepatocellular Carcinoma); experiment: as above
Method in brief: as §1

[16] = system: EB2 (Burkitt's Lymphoma); experiment: as above
Method in brief: as §1

[17] = system: NCI-H2087 (Lung Adenocarcinoma); experiment: as above
Method in brief: as §1

[18] = system: IM-9 (Non-Cancerous); experiment: as above
Method in brief: as §1

[19] = system: PEO1 (Ovarian Carcinoma); experiment: as above
Method in brief: as §1

[20] = system: 22RV1 (Prostate Carcinoma); experiment: as above
Method in brief: as §1
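Wherever Bliss excess, mean over the matrix is given: after 72 h of two-drug dosing.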

With `Cc1cc2ncnn2cc1Nc1ncc2c(n1)n(C1CCOCC1)c(=O)n2C` [AZD7648] + C=CCn1c(=O)c2cnc(Nc3ccc(N4CCN(C)CC4)cc3)nc2n1-c1cccc(C(C)(C)O)n1 [AZD1775] (first compound max 10 µM, partner max 1 µM) the Bliss excess [1] was -0.0303, the Bliss excess [2] was 0.0448 and the Bliss excess [3] was 0.0053. The Bliss excess [4] was -0.0041, the Bliss excess [5] was -0.0471 and the Bliss excess [6] was 0.0108. It also gave a Bliss excess [7] of 0.0183, a Bliss excess [8] of 0.0493 and a Bliss excess [9] of -0.0416. The Bliss excess [10] was 0.0384, the Bliss excess [11] was 0.0463 and the Bliss excess [12] was -0.0318. For the same compound, the Bliss excess [13] was -0.043, the “combination Emax” value [14] was 0.551 and the “combination Emax” value [15] was 0.7. The “combination Emax” value [16] was 0.819, the “combination Emax” value [17] was 0.353 and the “combination Emax” value [18] was 0.996. The “combination Emax” value [19] was 0.439 and the “combination Emax” value [20] was 0.46.
`CN(CCO)CC[C@H](CSc1ccccc1)Nc1ccc(S(=O)(=O)NC(=O)c2ccc(N3CCC([C@@H](O)c4ccccc4-c4ccc(Cl)cc4)CC3)cc2)cc1S(=O)(=O)C(F)(F)F` [AZD4320] + CCN(CCO)CCCOc1ccc2c(Nc3cc(CC(=O)Nc4cccc(F)c4)[nH]n3)ncnc2c1 [AZD2811] (first compound max 1 µM, 7x7, partner max 1 µM) showed a Bliss excess [1] of 0.0011, a Bliss excess [2] of -0.0242 and a Bliss excess [3] of 0.038. For the same compound, the Bliss excess [4] was -0.0553, the Bliss excess [5] was 0.14 and the Bliss excess [6] was 0.0635. For the same compound, the Bliss excess [7] was 0.0105, the Bliss excess [8] was 0.0364 and the Bliss excess [9] was -0.0191. For the same compound, the Bliss excess [10] was -0.0025, the Bliss excess [11] was 0.0004 and the Bliss excess [12] was 0.0119. The Bliss excess [13] was 0.0712, the “combination Emax” value [14] was 0.481 and the “combination Emax” value [15] was 0.169. The “combination Emax” value [16] was 0.338, the “combination Emax” value [17] was 0.464 and the “combination Emax” value [18] was 1. For the same compound, the “combination Emax” value [19] was 0.454 and the “combination Emax” value [20] was 0.259.
`CN(CCO)CC[C@H](CSc1ccccc1)Nc1ccc(S(=O)(=O)NC(=O)c2ccc(N3CCC([C@@H](O)c4ccccc4-c4ccc(Cl)cc4)CC3)cc2)cc1S(=O)(=O)C(F)(F)F` [AZD4320] + C[C@@H]1COCCN1C2=NC(=NC(=C2)C3(CC3)[S@](=N)(=O)C)C4=C5C=CNC5=NC=C4 [AZD6738] (first compound max 1 µM, 7x7, partner max 10 µM) showed a Bliss excess [1] of -0.036, a Bliss excess [2] of -0.0311 and a Bliss excess [3] of -0.0265. For the same compound, the Bliss excess [4] was -0.0207, the Bliss excess [5] was -0.101 and the Bliss excess [6] was -0.0544. The Bliss excess [7] was -0.0112, the Bliss excess [8] was 0.0045 and the Bliss excess [9] was -0.0275. The Bliss excess [10] was -0.0628, the Bliss excess [11] was 0.0079 and the Bliss excess [12] was 0.0135. For the same compound, the Bliss excess [13] was 0.0419, the “combination Emax” value [14] was 0.73 and the “combination Emax” value [15] was 0.792. For the same compound, the “combination Emax” value [16] was 0.835, the “combination Emax” value [17] was 0.919 and the “combination Emax” value [18] was 1. The “combination Emax” value [19] was 0.686 and the “combination Emax” value [20] was 0.624.
Work on `CN(CCO)CC[C@H](CSc1ccccc1)Nc1ccc(S(=O)(=O)NC(=O)c2ccc(N3CCC([C@@H](O)c4ccccc4-c4ccc(Cl)cc4)CC3)cc2)cc1S(=O)(=O)C(F)(F)F` [AZD4320] + C=CCn1c(=O)c2cnc(Nc3ccc(N4CCN(C)CC4)cc3)nc2n1-c1cccc(C(C)(C)O)n1 [AZD1775] (first compound max 1 µM, partner max 1 µM) yielded a Bliss excess [1] of -0.0071, a Bliss excess [2] of 0.0021 and a Bliss excess [3] of -0.0084. It also gave a Bliss excess [4] of -0.0304, a Bliss excess [5] of 0.033 and a Bliss excess [6] of -0.0226. The Bliss excess [7] was 0.0568, the Bliss excess [8] was 0.0503 and the Bliss excess [9] was 0.0175. For the same compound, the Bliss excess [10] was -0.0344, the Bliss excess [11] was 0.0363 and the Bliss excess [12] was 0.0549. For the same compound, the Bliss excess [13] was 0.0571, the “combination Emax” value [14] was 0.471 and the “combination Emax” value [15] was 0.604. For the same compound, the “combination Emax” value [16] was 0.866, the “combination Emax” value [17] was 0.68 and the “combination Emax” value [18] was 1. The “combination Emax” value [19] was 0.529 and the “combination Emax” value [20] was 0.321.

Reference: the supplement of paper PMC11061612
